Legend:
[1] = tested on: PC12 cells; assay: EGR-SEAP/PC12 screening assay for neuronal activity; assay type: cell-based, rat; conditions: 50 ng/ul; PC12 EGR-SEAP; typically seen
From the text: Particularly, the following protocol is used to assess neuronal activity in PC12 cell lines. PC12 cells (rat phenochromocytoma cells) are known to proliferate and/or differentiate by activation with a number of mitogens, such as TPA (tetradecanoyl phorbol acetate), NGF (nerve growth factor), and EGF (epidermal growth factor). The EGR1 gene expression is activated during this treatment. Thus, by stably transfecting PC12 cells with a construct containing an EGR promoter linked to SEAP reporter, activation of PC12 cells by CLC can be assessed.
The EGR/SEAP reporter construct can be assembled by the following protocol. The EGR-1 promoter sequence (−633 to +1; Sakamoto, K., et al., Oncogene 6:867-871 (1991)) can be PCR amplified from human genomic DNA using the following primers. The 5′ primer has the sequence: 5′-GCGCTCGAGGGATGACAGCGATAGAACCCCGG-3′ (SEQ ID NO:19) and the 3′ primer has the sequence: 5′-GCGAAGCTTCGCGACTCCCCGGATCCGCCTC-3′ (SEQ ID NO:20).
Using the GAS:SEAP/Neo vector produced in Example 6, EGR1 amplified product can then be inserted into this vector. Linearize the GAS:SEAP/Neo vector using restriction enzymes Xho I and Hind III, removing the GAS/SV40 stuffer. Restrict the EGR1 amplified product with these same enzymes. Ligate the vector and the EGR1 promoter. […]

[2] = tested on: NF-κB promoter element in Jurkat T-cells; assay: NF-κB/SEAP screening assay in Jurkat T-cells; assay type: cell-based; conditions: 0.1, 1, 10 ng, typically observed
Experimental: Due to its central role and ability to respond to a range of stimuli, reporter constructs utilizing the NF-κB promoter element are used to screen the supernatants produced in Example 6. Activators or inhibitors of NF-κB would be useful in treating diseases. For example, inhibitors of NF-κB could be used to treat those diseases related to the acute or chronic activation of NF-κB, such as rheumatoid arthritis and others.
PCR amplification is performed using the SV40 promoter template present in the pb-gal:promoter plasmid obtained from Clontech. The resulting PCR fragment is digested with Xho I and Hind III and subcloned into BLSK2-(Stratagene). Sequencing with the T7 and T3 primers confirms the insert contains the following sequence: 5′-CTC
Next, replace the SV40 minimal promoter element present in the pSEAP2-promoter plasmid (Clontech) with this NF-κB/SV40 fragment using Xho I and Hind III.
Particularly, the NF-κB/SV40/SEAP cassette was inserted into pGFP-1 (Clontech), replacing the GFP gene, after restricting pGFP- 1 with Sal I and Not I.
Once NF-κB/SV40/SEAP/Neo vector is created, stable Jurkat T-cells are created and maintained according to the protocol described in Example 9. Similarly, the method for assaying supernatants with these stable Jurkat T-cells is also described in Example 9. […]

| Substance | induction of SEAP in positive control wells [1] | activation in positive control wells [2] |
| --- | --- | --- |
| NGF: growth factor known to activate PC12 cells through EGR | Over fifty-fold induction | – |
| TNF alpha | – | 5-10 fold |
